{"source": "the supplement of paper PMC11208160", "experiment": "recombinant barcode read abundance after kanamycin selection (control-corrected) (log10(CPM+1)); higher = more efficient recombination; sequences stand for … in AGTGCAGAGAAAATCGGCCAGTTTTCTCTGCCTGCAGTCCGCATGCCGT…AGATTTATGCAGCGGACTGCCTTTCTCCCAAAGTGATAAACCGGACAGTATCATGGACCGGTTTTCCCGGTAATCCGTATTTGCAAGGTTGGTTTCACT; site = the 11-nt target", "in_short": "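Oligos holding a promoter, target, barcode and the J23119-driven first 104 bases of the bridge RNA were Gibson-cloned into a vector that supplied the other 73 bp plus a T7-inducible recombinase. This library was co-electroporated with a donor plasmid into E. coli. Two replicates went on chloramphenicol/ampicillin LB agar (control) and two on chloramphenicol/ampicillin/kanamycin with 0.1 mM IPTG. Recombination efficiency is read from averaged, control-corrected barcode counts per million at recombinant junctions, reported as log10(CPM+1).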"}
{"sequence": "ATCAAGCCTTGGGTTCTAACCTGTTGCTT (site ATCAAGCCTAA)", "values": [{"measurement": "recombinant barcode read abundance (log10)", "value": 0.102}]}
{"sequence": "ATCAAGCCTTGGGTTCTAACCTGTTGCTT (site ATGAAGCCTAA)", "values": [{"measurement": "recombinant barcode read abundance (log10)", "value": 0.122}]}
{"sequence": "ATCATAGCTTGGGTTCTAACCTGTTGCGC (site ATCATAGCTGC)", "values": [{"measurement": "recombinant barcode read abundance (log10)", "value": 0.504}]}
{"sequence": "ATCATAGCTTGGGTTCTAACCTGTTGCGC (site CCATACCCTTA)", "values": [{"measurement": "recombinant barcode read abundance (log10)", "value": 0.0517}]}
{"sequence": "ATCATTCCTTGGGTTCTAACCTGTTGCCT (site AACATACCTAG)", "values": [{"measurement": "recombinant barcode read abundance (log10)", "value": 0.237}]}
{"sequence": "ATCATTCCTTGGGTTCTAACCTGTTGCCT (site ATCATTCCTAG)", "values": [{"measurement": "recombinant barcode read abundance (log10)", "value": 0.542}]}
{"sequence": "ATCCTTACTTGGGTTCTAACCTGTTGCCT (site AACCTTACTAG)", "values": [{"measurement": "recombinant barcode read abundance (log10)", "value": 0.247}]}
{"sequence": "ATCCTTACTTGGGTTCTAACCTGTTGCCT (site ACCCTTACTAG)", "values": [{"measurement": "recombinant barcode read abundance (log10)", "value": 0.136}]}
{"sequence": "ATCCTTACTTGGGTTCTAACCTGTTGCCT (site AGCCTTACTAG)", "values": [{"measurement": "recombinant barcode read abundance (log10)", "value": 0.156}]}
{"sequence": "ATCCTTACTTGGGTTCTAACCTGTTGCCT (site ATCCTTACTAG)", "values": [{"measurement": "recombinant barcode read abundance (log10)", "value": 1.16}]}
{"sequence": "ATCGCTTCTTGGGTTCTAACCTGTTGCCT (site AACGCTTCTAG)", "values": [{"measurement": "recombinant barcode read abundance (log10)", "value": 0.246}]}
{"sequence": "ATCGCTTCTTGGGTTCTAACCTGTTGCCT (site ACCGCTTCTAG)", "values": [{"measurement": "recombinant barcode read abundance (log10)", "value": 0.272}]}
{"sequence": "ATCGCTTCTTGGGTTCTAACCTGTTGCCT (site AGCGCTTCTAG)", "values": [{"measurement": "recombinant barcode read abundance (log10)", "value": 0.432}]}
{"sequence": "ATCGCTTCTTGGGTTCTAACCTGTTGCCT (site ATCGCTTCTAG)", "values": [{"measurement": "recombinant barcode read abundance (log10)", "value": 0.0338}]}
{"sequence": "ATCGGACCTTGGGTTCTAACCTGTTGCCT (site ATCGGAACTAG)", "values": [{"measurement": "recombinant barcode read abundance (log10)", "value": 0.0754}]}
{"sequence": "ATCGGACCTTGGGTTCTAACCTGTTGCCT (site ATCGGACCTAG)", "values": [{"measurement": "recombinant barcode read abundance (log10)", "value": 1.23}]}
{"sequence": "ATCGGACCTTGGGTTCTAACCTGTTGCCT (site ATCGGAGCTAG)", "values": [{"measurement": "recombinant barcode read abundance (log10)", "value": 0.206}]}
{"sequence": "ATCGGACCTTGGGTTCTAACCTGTTGCCT (site ATCGGATCTAG)", "values": [{"measurement": "recombinant barcode read abundance (log10)", "value": 0.107}]}
{"sequence": "ATCGGAGCTTGGGTTCTAACCTGTTGCCT (site ATCGGAACTAG)", "values": [{"measurement": "recombinant barcode read abundance (log10)", "value": 0.196}]}
{"sequence": "ATCGGAGCTTGGGTTCTAACCTGTTGCCT (site ATCGGACCTAG)", "values": [{"measurement": "recombinant barcode read abundance (log10)", "value": 0.0265}]}
{"sequence": "ATCGGAGCTTGGGTTCTAACCTGTTGCCT (site ATCGGAGCTAG)", "values": [{"measurement": "recombinant barcode read abundance (log10)", "value": 0.775}]}
{"sequence": "ATCGGAGCTTGGGTTCTAACCTGTTGCCT (site ATCGGATCTAG)", "values": [{"measurement": "recombinant barcode read abundance (log10)", "value": 0.181}]}
{"sequence": "ATCGTACCTTGGGTTCTAACCTGTTGCTG (site ATCCTACCTAA)", "values": [{"measurement": "recombinant barcode read abundance (log10)", "value": 0.167}]}
{"sequence": "ATCGTACCTTGGGTTCTAACCTGTTGCTG (site ATCGTACCTCA)", "values": [{"measurement": "recombinant barcode read abundance (log10)", "value": 0.123}]}
{"sequence": "ATCTGTTCTTGGGTTCTAACCTGTTGCCT (site ACCTGTGCTAG)", "values": [{"measurement": "recombinant barcode read abundance (log10)", "value": 0.108}]}
{"sequence": "ATCTGTTCTTGGGTTCTAACCTGTTGCCT (site ATCTGTTCTAG)", "values": [{"measurement": "recombinant barcode read abundance (log10)", "value": 0.327}]}
{"sequence": "ATCTTAGCTTGGGTTCTAACCTGTTGCCT (site ATCTTAACTAG)", "values": [{"measurement": "recombinant barcode read abundance (log10)", "value": 0.0917}]}
{"sequence": "ATCTTAGCTTGGGTTCTAACCTGTTGCCT (site ATCTTACCTAG)", "values": [{"measurement": "recombinant barcode read abundance (log10)", "value": 0.141}]}
{"sequence": "ATCTTAGCTTGGGTTCTAACCTGTTGCCT (site ATCTTAGCTAG)", "values": [{"measurement": "recombinant barcode read abundance (log10)", "value": 0.266}]}
{"sequence": "ATCTTAGCTTGGGTTCTAACCTGTTGCCT (site ATCTTATCTAG)", "values": [{"measurement": "recombinant barcode read abundance (log10)", "value": 0.197}]}
{"sequence": "ATCTTGTCTTGGGTTCTAACCTGTTGCCG (site ATCTTGTCTAG)", "values": [{"measurement": "recombinant barcode read abundance (log10)", "value": 0.264}]}
{"sequence": "ATCTTGTCTTGGGTTCTAACCTGTTGCCG (site ATCTTGTCTCG)", "values": [{"measurement": "recombinant barcode read abundance (log10)", "value": 0.0848}]}
{"sequence": "ATCTTGTCTTGGGTTCTAACCTGTTGCGG (site ATCTTGTCTCC)", "values": [{"measurement": "recombinant barcode read abundance (log10)", "value": 1.83}]}
{"sequence": "ATCTTGTCTTGGGTTCTAACCTGTTGCGG (site CATGATACTAG)", "values": [{"measurement": "recombinant barcode read abundance (log10)", "value": 0.102}]}
{"sequence": "ATGAATGCTTGGGTTCTAACCTGTTGCCT (site ATGAATGCTAG)", "values": [{"measurement": "recombinant barcode read abundance (log10)", "value": 1.78}]}
{"sequence": "ATGAATGCTTGGGTTCTAACCTGTTGCCT (site ATGATTGCTAG)", "values": [{"measurement": "recombinant barcode read abundance (log10)", "value": 0.0173}]}
{"sequence": "ATGACCTCTTGGGTTCTAACCTGTTGCCT (site ATGACCTCTAG)", "values": [{"measurement": "recombinant barcode read abundance (log10)", "value": 1.46}]}
{"sequence": "ATGACCTCTTGGGTTCTAACCTGTTGCCT (site ATGCCCTCTAG)", "values": [{"measurement": "recombinant barcode read abundance (log10)", "value": 0.0297}]}
{"sequence": "ATGACCTCTTGGGTTCTAACCTGTTGCCT (site ATGGCCTCTAG)", "values": [{"measurement": "recombinant barcode read abundance (log10)", "value": 0.46}]}
